Legend:
zebrafish larvae = experiment: Zebrafish larval toxicity (NOEC, lethal dose); type: in vivo; details: for Lethal dose / Highest concentration tested for anti-seizure activity: 7 dpf zebrafish larvae; for Lethal dose: up to 5 h treatment; for Highest concentration tested for anti-seizure activity: highest sub-lethal dose
[1] = Mouse neurotoxicity (rotorod); type: in vivo; details: mice, 100 mg/kg i.p.
Protocol: Using a 96-well plate, one zebrafish larva (7 dpf) was placed in each well in 100 μL of tank water. 100 μL of each compound was then added to each well for 12 animals (one row) for a final volume of 200 μL. One row of zebrafish larvae was used as DMSO only controls. […] Toxicity was also measured in the mouse model by the NIH Anticonvulsant Screening Program at the National Institute of Neurological Disorders and Stroke (Stables and Kupferberg, 1997), according to the established NIH experimental procedures. Compounds were delivered into mice by intraperitoneal (i.p.) injection at a dose of 100 mg/kg in sterile 5% DMSO, 95% Neobee (Josey et al., 2013). Acute toxicity was assessed by monitoring the animals for impaired neuromuscular function by placing treated mice on a rod rotating at 6 rpm. […].

NQO-1 = experiment: qRT-PCR of antioxidant response gene NQO-1; type: cell-based, mouse; details: HT22, 10 mM glutamate 16 hrs, relative to glutamate only
Protocol: HT22 cells were seeded onto cell culture treated 6-well plates at 3.0×10^5 cells per well in 2 mL of medium and maintained at 37° C. in 5% CO2 overnight prior to the initiation of experimental treatments. Cells were subsequently treated with 1 mL of medium containing glutamate (monosodium glutamate, Sigma-Aldritch, 1 M stock concentration in media, to achieve a final concentration of 10 mM) plus inhibitors (stock in DMSO) and maintained at 37° C. in 5% CO2. After 16 hrs, the media was collected and the cells harvested by trypsanization. After centrifugation, pelleted cells were washed with cold Hanks' Balanced Salt Solution (HBSS Ca^2+/Mg^2+ Free; Invitrogen; KCl 5.33 mM, KH2PO4 0.441 mM, NaHCO3 4.17 mM, NaCl 137.93 mM, Na2HPO4 0.338 mM, D-Glucose 5.56 mM), qRT-PCR was used to detect HO-1, NQO-1, and PGAM5 mRNAs in the HT22 cells. […] Therefore β2-microglobulin was used as a reference gene (Barrionuevo and Burggren, 1999). HT22 cells were cultured as described for 16 hrs. Total RNAs were extracted using the RNEasy kit (Qiagen), and transcripts of interest were amplified by PCR using the 1-step Syber Green qRT-PCR kit (Quanta) and the following specific primers (Harvard PrimerBank; Integrated DNA Technologies): HO-1, 5′-[…]-3′ (SEQ ID NO:1) and 5′-[…]-3′ (SEQ ID NO:2); PGAM5, 5′-[…]-3′ (SEQ ID NO:3) and 5′-[…]-3′ (SEQ ID NO:4); NQO-1, 5′-[…]-3′ (SEQ ID NO:5) and 5′-[…]-3′ (SEQ ID NO:6); and β2-microglobulin, 5′-[…]-3′ (SEQ ID NO:7) and 5′-[…]-3′ (SEQ ID NO:8). Linearity of the primers was verified before use, and fold changes were calculated as previously described using the Livak method (Barrionuevo and Burggren, 1999).

| Compound | Lethal dose (zebrafish larvae) [mM] | Highest concentration tested for anti-seizure activity (zebrafish larvae) [mM] | animals displaying toxic effects/animals tested, 0.25 hr [1] | animals displaying toxic effects/animals tested, 0.5 hr [1] | animals displaying toxic effects/animals tested, 1.0 hr [1] | animals displaying toxic effects/animals tested, 2.0 hr [1] | animals displaying toxic effects/animals tested, 4.0 hr [1] | NQO-1 gene expression (NQO-1) | highest NOEC (zebrafish larvae; zebrafish larvae) [µM] |
| --- | --- | --- | --- | --- | --- | --- | --- | --- | --- |
| C#CCNC1=CC(=O)c2ccccc2C1=O [Compound 2h, 2-(prop-2-yn-1-ylamino)naphthalene-1,4-dione] | >0.02 | 0.02 | 0/12 | 1/12 | 0/12 | 0/12 | 0/12 |  |  |
| O=C1C=C(NCc2ccccc2)C(=O)c2ccccc21 [Compound 2j, 2-(benzylamino)naphthalene-1,4-dione] | 0.012 | 0.010 | 0/12 | 0/12 | 0/12 | 0/12 | 0/12 | did not affect NQO-1 expression |  |
| O=C1C=C(NCc2cccc(Cl)c2)C(=O)c2ccccc21 [Compound 2q, 2-((3-chlorobenzyl)amino)naphthalene-1,4-dione] | >0.02 | 0.02 | 0/12 | 0/12 | 0/12 | 0/12 | 0/12 | did not affect NQO-1 expression |  |
| CC1=CC(=O)c2ccccc2C1=O [VK3, menadione, reference compound] | 0.007 | 0.006 |  |  |  |  |  |  | 10 |
| menaquinones [VK2, reference compound] |  |  |  |  |  |  |  | did not affect NQO-1 expression |  |

Reference: US10391070B2, “Compositions and methods for treating neurological diseases or injury” (MUSC FOUNDATION FOR RESEARCH DEVELOPMENT, priority 2012, dated 2019)
